Measured values reported in patent EP1079849B1, “USE OF HMG PROTEINS FOR THE PREPARATION OF MEDICAMENTS HAVING CYTOTOXIC ACTIVITY” (Istituto Di Ricerche " Giorgio Sisini", priority 1998, dated 2002).

Test system: tumors
Assay: DMBA-induced tumor growth in rats
Settings: female rats with DMBA-induced tumors; control = saline solution; result in words

Peptide 1-19: peptide 1-19 of HMG-I, commercially available from Santa Cruz Biotechnology, Santa Cruz, CA, USA (MSESSSKSSQPLASKQEKD; UniProt P17096 1-19, looked up, fragment)
tumor growth in comparison to the control: clearly slow down the tumor growth
